Where a name gives a salt, the structure may show the parent alone. Read-outs that look alike come from different tables or passages of the source.
Test system: uptake systems for 5HT in the brain
Assay: in vivo inhibition of p-chloroamphetamine-induced depletion of brain 5HT
Design: species or system Charles River CD rats
Details: Rattus norvegicus, read-out: percentage inhibition of depletion (Ib)
Experimental: Once inside the neuron the depletor agent displaces the amine transmitter from its storage sites into the cytoplasm of the cell where it is metabolised by monoamine oxidase. […] The levels of the amine transmitter are preserved by pretreatment of the uptake sites with an uptake inhibitor. […] After 30 minutes a solution of p-chloroamphetamine in. distilled water was injected intraperitoneally at a dose of 5 mg/kg. After a further four hours the animals were sacrificed and the 5HT level in the brain determined fluorometrically.
The 5HT level in the brain was also determined in Control animals which received only vehicle solutions and for animals which received vehicle orally instead of the test compound followed by intraperitoneal injections of the depleting agent. These latter animals are referred to herein as depleted controls. The percentage inhibition. of depletion (Ib) was calculated using the formula

[1] = rats, 30 mg/kg orally, p-chloroamphetamine 5 mg/kg i.p. after 30 minutes, brain 5HT level after a further four hours

Row | Compound | inhibition at 30 mg/kg | inhibition at 30 mg/kg [1]
1 | CN(C)CCCN1c2ccccc2CCc2ccc(Cl)cc21 [Clomipramine] | 8% | –
2 | CN(C)CC/C=C1\c2ccccc2CSc2ccccc21 [Dothiepin] | – | 9%
3 | CN(C)CCCN1c2ccccc2CCc2ccccc21 [Imipramine] | 18% | –
4 | CN(C)CCC=C1c2ccccc2CSc2ccc(C#N)cc21 [Product of Example 1, 11-(3-dimethylaminopropylidene)-6,11-dihydrodibenzo(b,e)thiepin-2-carbonitrile hydrobromide] | – | 82%
5 | CN(C)CCC=C1c2cc(C#N)ccc2CSc2ccccc21 [Product of Example A, 11-(3-Dimethyl-aminopropylidene)6,1i-dihydrodibenzo[b,e]thiepin-9-carbonitrile hydrobromide] | – | 0%

— patent EP0101234A1, “Therapeutic agent” (The Boots Company PLC, priority 1982, dated 1984)
